Like-named read-outs stand apart in the source and are kept apart here.
How the values were obtained:
[1] = for Solubility (mass %): phenol/acetone/water (50/50/5) weight mixture; for times more soluble than potassium sulfate: phenol/acetone/water (50/50/5)
Description: 25 g of test solvent are placed in a 50 mL three-necked flask equipped with a condenser, a thermometer and a magnetic stirrer. The solvent is brought to the desired temperature and the alkanesulfonic acid salt is then added portionwise until cloudiness appears, indicating saturation of the medium.
The solubility is calculated in the following manner:
% salt solubility=m/(m+M)×100
with m=mass of dissolved salt, M=mass of solvent
1. Solubility of the Salts in a Phenol/Acetone/Water (50/50/5) Weight Mixture:
A first measurement is taken at 20° C. at atmospheric pressure, and a second measurement is then taken at 60° C. […] 1.1 Potassium Salts

[2] = for Solubility (mass %): phenol/water (95/5) weight mixture; for times more soluble than potassium sulfate: phenol/water (95/5)
Description: Solubility of the Salts in a Phenol/Water (95/5) Weight Mixture:
A first measurement is taken at 55° C. at atmospheric pressure, and a second measurement is then taken at 100° C.

CS(=O)(=O)[O-].[K+] [CH3SO3K, potassium methanesulfonate]
Solubility (mass %) ([1]; 20° C., atmospheric pressure): 0.80% mass % | Solubility (mass %) ([1]; 60° C.): 0.80% mass % | times more soluble than potassium sulfate ([1]; at 20° C.): more than 6.7 times | times more soluble than potassium sulfate ([1]; at 60° C.): more than 6.7 times | Solubility (mass %) ([2]; 55° C., atmospheric pressure): 1.90% mass % | Solubility (mass %) ([2]; 100° C.): 2.40% mass % | times more soluble than potassium sulfate ([2]; printed as at 20° C.): 15 times | times more soluble than potassium sulfate ([2]; printed as at 60° C.): 8 times
